Source: patent US20070128217A1 (priority 2003, published 2007)

Legend:
[1] = system: antibodies in sera from SARS patients (sera 1a, 1b, 2, 6, 37, 62, London, SARS-yellow, SARS-green); assay type: binding, human; design: Binding of serum 6 to linear peptides of protein X1 of SARS-CoV Urbani / Binding of serum 37 to linear peptides of protein X1 of SARS-CoV Urbani / Binding of serum 6 to looped/cyclic peptide (PEPSCAN-ELISA) / Binding of serum 37 to looped/cyclic peptide (PEPSCAN-ELISA) / Binding of serum 37 to looped/cyclic peptides of protein X1 of SARS-CoV Urbani / Binding of serum 6 to linear peptides of protein X2 / Binding of serum 37 to linear peptides of protein X2 / Binding of serum 37 to looped/cyclic peptides of protein X2 of SARS-CoV Urbani / Binding of serum 6 to linear peptides of protein M of SARS-CoV Urbani / Binding of serum 37 to linear peptides of protein M of SARS-CoV Urbani / Binding of serum 6 to looped/cyclic peptides of protein M of SARS-CoV Urbani / Binding of serum 37 to looped/cyclic peptides of protein M of SARS-CoV Urbani / Binding of serum 6 to linear peptides of protein X3 of SARS-CoV Urbani / Binding of serum 37 to linear peptides of protein X3 of SARS-CoV Urbani / Binding of serum 37 to looped/cyclic peptides of protein X3 of SARS-CoV Urbani / Binding of serum 6 to linear peptides of protein X4 of SARS-CoV Urbani / Binding of serum 37 to linear peptides of protein X4 of SARS-CoV Urbani / Binding of serum 37 to looped/cyclic peptides of protein X4 of SARS-CoV Urbani / Binding of serum 6 to linear peptides of protein X5 of SARS-CoV Urbani / Binding of serum 37 to linear peptides of protein X5 of SARS-CoV Urbani / Binding of serum 37 to looped/cyclic peptides of protein X5 of SARS-CoV Urbani / Binding of serum 6 to linear peptides of protein N of SARS-CoV Urbani / Binding of serum 37 to linear peptides of protein N of SARS-CoV Urbani / Binding of serum 6 to linear peptide (PEPSCAN-ELISA) / Binding of serum 1a to looped/cyclic peptides of protein N of SARS-CoV Urbani / Binding of serum 1b to looped/cyclic peptides of protein N of SARS-CoV Urbani / Binding of serum 2 to looped/cyclic peptides of protein N of SARS-CoV Urbani / Binding of serum 6 to looped/cyclic peptides of protein N of SARS-CoV Urbani / Binding of serum 37 to looped/cyclic peptides of protein N of SARS-CoV Urbani / Binding of serum 62 to looped/cyclic peptides of protein N of SARS-CoV Urbani / Binding of serum London to looped/cyclic peptides of protein N of SARS-CoV Urbani / Binding of serum SARS-green to looped/cyclic peptides of protein N of SARS-CoV Urbani: unit not given here
[2] = system: rabbit serum obtained by immunizing a rabbit with the SARS-CoV strain Frankfurt 1; assay type: binding; design: Binding of a rabbit serum to linear peptides / Binding of a rabbit serum to looped peptides / Rabbit serum linear peptides / Rabbit serum looped peptides / Binding of a rabbit serum to linear peptides of protein N of SARS-CoV Urbani (Rabbit serum linear peptides) / Binding of a rabbit serum to looped/cyclic peptides of protein N of SARS-CoV Urbani (Rabbit serum looped peptides): unit not given here
[3] = system: control sera (pooled serum of ten healthy LUMC hospital workers; commercial negative donor pooled serum from the Dutch bloodbank); assay type: binding, human; design: Binding of Control serum LUMC to linear peptides / Binding of Control serum Blood-bank to linear peptides / Binding of Control serum LUMC to looped peptides / Binding of Control Serum Blood-Bank to Looped peptides / Binding of Control serum LUMC to linear peptides of the protein M of SARS-CoV Urbani / Binding of Control serum Blood-bank to linear peptides of the protein M of SARS-CoV Urbani / Binding of Control serum LUMC to looped peptides of the protein M of SARS-CoV Urbani / Binding of Control Serum Blood-Bank to Looped peptides of the protein M of SARS-CoV Urbani: unit not given here

## DTGIENATFFIFNKL
[1]
  Binding of serum 1a to linear peptides of protein X1 of SARS-CoV Urbani: 0.7
  Binding of serum 1a to looped/cyclic peptides of protein X1 of SARS-CoV Urbani: 0.6
  Binding of serum 1b to linear peptides of protein X1 of SARS-CoV Urbani: 0.5
  Binding of serum 1b to looped/cyclic peptides of protein X1 of SARS-CoV Urbani: 0.5
  Binding of serum 2 to linear peptides of protein X1 of SARS-CoV Urbani: 0.5
  Binding of serum 2 to looped/cyclic peptides of protein X1 of SARS-CoV Urbani: 0.6
  Binding of serum 6 to linear peptides of protein X1 of SARS-CoV Urbani: 0.4
  Binding of serum 6 to looped/cyclic peptides of protein X1 of SARS-CoV Urbani: 0.2
  Binding of serum 37 to linear peptides of protein X1 of SARS-CoV Urbani: 0.7
  Binding of serum 37 to looped/cyclic peptides of protein X1 of SARS-CoV Urbani: 0.7
  Binding of serum 62 to linear peptides of protein X1 of SARS-CoV Urbani: 0.6
  Binding of serum 62 to looped/cyclic peptides of protein X1 of SARS-CoV Urbani: 0.6
  Binding of serum London to linear peptides of protein X1 of SARS-CoV Urbani: 0.4
  Binding of serum London to looped/cyclic peptides of protein X1 of SARS-CoV Urbani: 0.2
  Binding of serum SARS-green to linear peptides of protein X1 of SARS-CoV Urbani: 0.3
  Binding of serum SARS-green to looped/cyclic peptides of protein X1 of SARS-CoV Urbani: 0.4
  Binding of serum SARS-yellow to linear peptides of protein X1 of SARS-CoV Urbani: 0.4
  Binding of serum SARS-yellow to looped/cyclic peptides of protein X1 of SARS-CoV Urbani: 0.6
[2]
  Binding of a rabbit serum to linear peptides: 0.1
  Binding of a rabbit serum to looped peptides: 0.6
[3]
  Binding of Control Serum Blood-Bank to Looped peptides: 0.7
  Binding of Control serum Blood-bank to linear peptides: 0.6
  Binding of Control serum LUMC to linear peptides: 0.5
  Binding of Control serum LUMC to looped peptides: 0.9

## CIVGLMWLSYFVASF
[1]
  Binding of serum 1a to linear peptides of protein M of SARS-CoV Urbani: 0.7
  Binding of serum 1a to looped/cyclic peptides of protein M of SARS-CoV Urbani: 0.5
  Binding of serum 1b to linear peptides of protein M of SARS-CoV Urbani: 0.5
  Binding of serum 1b to looped/cyclic peptides of protein M of SARS-CoV Urbani: 0.2
  Binding of serum 2 to linear peptides of protein M of SARS-CoV Urbani: 0.3
  Binding of serum 2 to looped/cyclic peptides of protein M of SARS-CoV Urbani: 0.4
  Binding of serum 6 to linear peptides of protein M of SARS-CoV Urbani: 0.3
  Binding of serum 6 to looped/cyclic peptides of protein M of SARS-CoV Urbani: 0.4
  Binding of serum 37 to linear peptides of protein M of SARS-CoV Urbani: 0.4
  Binding of serum 37 to looped/cyclic peptides of protein M of SARS-CoV Urbani: 0.6
  Binding of serum 62 to linear peptides of protein M of SARS-CoV Urbani: 0.4
  Binding of serum 62 to looped/cyclic peptides of protein M of SARS-CoV Urbani: 0.4
  Binding of serum London to linear peptides of protein M of SARS-CoV Urbani: 0.3
  Binding of serum London to looped/cyclic peptides of protein M of SARS-CoV Urbani: 0.2
  Binding of serum SARS-green to linear peptides of protein M of SARS-CoV Urbani: 0.3
  Binding of serum SARS-green to looped/cyclic peptides of protein M of SARS-CoV Urbani: 0.0
  Binding of serum SARS-yellow to linear peptides of protein M of SARS-CoV Urbani: 0.1
  Binding of serum SARS-yellow to looped/cyclic peptides of protein M of SARS-CoV Urbani: 0.5
[2]
  Rabbit serum linear peptides: 0.1
  Rabbit serum looped peptides: 0.3
[3]
  Binding of Control Serum Blood-Bank to Looped peptides of the protein M of SARS-CoV Urbani: 0.6
  Binding of Control serum Blood-bank to linear peptides of the protein M of SARS-CoV Urbani: 0.4
  Binding of Control serum LUMC to linear peptides of the protein M of SARS-CoV Urbani: 0.5
  Binding of Control serum LUMC to looped peptides of the protein M of SARS-CoV Urbani: 0.7

## QRVGTDSGFAAYNRY
[1]
  Binding of serum 1a to linear peptides of protein M of SARS-CoV Urbani: 0.7
  Binding of serum 1a to looped/cyclic peptides of protein M of SARS-CoV Urbani: 0.6
  Binding of serum 1b to linear peptides of protein M of SARS-CoV Urbani: 0.5
  Binding of serum 1b to looped/cyclic peptides of protein M of SARS-CoV Urbani: 0.5
  Binding of serum 2 to linear peptides of protein M of SARS-CoV Urbani: 0.5
  Binding of serum 2 to looped/cyclic peptides of protein M of SARS-CoV Urbani: 0.5
  Binding of serum 6 to linear peptides of protein M of SARS-CoV Urbani: 0.3
  Binding of serum 6 to looped/cyclic peptides of protein M of SARS-CoV Urbani: 0.6
  Binding of serum 37 to linear peptides of protein M of SARS-CoV Urbani: 0.7
  Binding of serum 37 to looped/cyclic peptides of protein M of SARS-CoV Urbani: 0.6
  Binding of serum 62 to linear peptides of protein M of SARS-CoV Urbani: 0.7
  Binding of serum 62 to looped/cyclic peptides of protein M of SARS-CoV Urbani: 0.5
  Binding of serum London to linear peptides of protein M of SARS-CoV Urbani: 0.3
  Binding of serum London to looped/cyclic peptides of protein M of SARS-CoV Urbani: 0.2
  Binding of serum SARS-green to linear peptides of protein M of SARS-CoV Urbani: 0.3
  Binding of serum SARS-green to looped/cyclic peptides of protein M of SARS-CoV Urbani: 0.3
  Binding of serum SARS-yellow to linear peptides of protein M of SARS-CoV Urbani: 0.1
  Binding of serum SARS-yellow to looped/cyclic peptides of protein M of SARS-CoV Urbani: 0.6
[2]
  Rabbit serum linear peptides: 0.4
  Rabbit serum looped peptides: 0.0
[3]
  Binding of Control Serum Blood-Bank to Looped peptides of the protein M of SARS-CoV Urbani: 0.7
  Binding of Control serum Blood-bank to linear peptides of the protein M of SARS-CoV Urbani: 0.6
  Binding of Control serum LUMC to linear peptides of the protein M of SARS-CoV Urbani: 0.3
  Binding of Control serum LUMC to looped peptides of the protein M of SARS-CoV Urbani: 0.8
